In patent US20070225278A1, “Methods for treating cognitive and other disorders” (priority 2006, published 2007):

Columns and labels:
[1] = Antidepressant-like effects (MED), Table 2; format: in vivo; settings: minimal effective dose
Source text: Table 2, below, summarizes the dose at which antidepressant-like effects are observed, the dose at which sexual dysfunction occurs, and the therapeutic window.

male Sprague-Dawley rats = format: in vivo, rat; settings: for Sexual dysfunction (MED mg/kg): male, Sprague-Dawley, rat, in vivo, 30 min; for reduction of the number of penile erections relative to vehicle treated animals: sexually experienced male rats, female stimuli present, i.p. once daily
Source text: In summary, male rats were allowed access to sexually receptive females during a single overnight mating session and then administered antidepressants with varying degrees of clinically reported sexual deficits. […] Animals
Intact male Sprague-Dawley rats (Charles River Laboratories) arrived at 7 weeks of age and were allowed to habituate for one week prior to sexual experience or behavioral testing. Rats were group housed in same-sex colony rooms with food and water provided ad libitum. All animals were maintained under a 12:12 light-dark cycle (lights on at 6:00 am) with behavioral experiments performed during the light hours beginning at noon.
Ovariectomized female Long-Evans rats (Charles River Laboratories) were individually housed and brought into behavioral estrus weekly by subcutaneous injection of 25 ug 17-B estradiol benzoate in 0.1 ml corn oil 48 hours prior to testing, followed by subcutaneous administration of 2.5 mg progesterone in 0.1 ml corn oil 4 to 6 hours before testing.
For subjects assigned into the sexually experienced group, the following procedures were performed. Individual male rats were placed into the home cage of a a sexually receptive female for overnight mating sessions. The cage was a Plexiglas cage measuring 10×12 inches, with food and water ad libitum. Mating pairs were randomly assigned. […] Following overnight mating sessions, males and females were separated from each other and placed back into same-sex colony rooms where they were group-housed until the time of behavioral testing.
To determine the effects of female stimuli on non-contact penile erections, sexually receptive females were brought into the testing room 30 minutes prior to the start of behavioral testing in order to provide female visual, olfactory, and auditory stimuli for males. The testing arena for observing non-contact penile erections in male rats consisted of an empty rat size Plexiglas cage (11×10 inches) containing no bedding, with an aerated plastic lid and a total ceiling height of 12 inches. […] A penile erection consisted of observation of the male rat in a hunched position grasping the penis with the forepaws and followed by a series of pelvic thrusts. The number of penile erections were quantified over a 30 minute observation session.
Following sexual experience (as described above), male subjects (n=8 per group) were administered either 10 mg/kg/day fluoxetine or saline vehicle for 14 days. On the 14th day, fluoxetine treatment was co-administered with either saline or apomorphine (0.1-0.3 mg/kg, sc) or yohimbine (0.1-0.3 mg/kg, sc) or sildenafil (0.1-0.3 mg/kg, sc) in separate experiments. Non-contact penile erections were evaluated in 30 minute test sessions in the presence of sexually receptive female rats.
Fluoxetine HCl (Tocris), desipramine (Sigma, St. Louis, Mo.) and bupropion HCl (Toronto Research Chemicals, Canada) were dissolved in 0.9% sterile saline vehicle and injected intraperitoneally (i.p.) once daily. On the day of behavioral testing, antidepressants were administered intraperitoneally (i.p.) as one hour pretreatments. For reversal experiments, apomorphine (Sigma, St. Louis, Mo.), yohimbine (Sigma, St. Louis, Mo.) or sildenafil (Toronto Research Chemicals, Canada) were used. Apomorphine was dissolved in 0.9% sterile saline vehicle and injected subcutaneously (s.c.). Yohimbine was dissolved in dH2O facilitated with 1N HCl, followed by addition of 1N NaOH for titration (pH=7) and administered intraperitoneally (i.p.). Sildenafil was dissolved in 0.9% sterile saline vehicle and administered intraperitoneally (i.p.). With the exception of fluoxetine which was administered in a dose volume of 2 ml/kg, all other test compounds were administered in a dose volume of 1 ml/kg. On the day of behavioral testing, both fluoxetine and the reversal agent (apomorphine, yohimbine, or sildenafil) were co-administered as 0 minute pretreatments. […]

[2] = system: male Sprague Dawley CD rats; assay: Reversal of MK-801 induced deficits in PPI; settings: data generated within the applicant's lab, doses not given

| SMILES | Antidepressant-like effects (MED mg/kg) [1] [mg/kg] | Sexual dysfunction (MED mg/kg) (male Sprague-Dawley rats) [mg/kg] | reduction of the number of penile erections relative to vehicle treated animals (male Sprague-Dawley rats) [%] | attenuation of MK-801 induced deficit in PPI (reference antipsychotics) [2] |
| --- | --- | --- | --- | --- |
| CNCCCN1c2ccccc2CCc2ccccc21 [Desipramine, desipramine] | 10 | 10 | 43 | – |
| CNCCC(Oc1ccc(C(F)(F)F)cc1)c1ccccc1 (stereo not shown) [Fluoxetine, fluoxetine] | 10 | 10 | 72 | – |
| Cc1nc2n(c(=O)c1CCN1CCC(c3noc4cc(F)ccc34)CC1)CCCC2 [risperidone, reference compound] | – | – | – | will attenuate |
| CC(NC(C)(C)C)C(=O)c1cccc(Cl)c1 (stereo not shown) [Bupropion, bupropion] | 20 | >20 | 9 | – |
